Results published in patent US20100041642A1, “UREA INHIBITORS OF MAP KINASES” (LOCUS PHARMACEUTICALS, INC., priority 2008, published 2010).

target: p38 (Homo sapiens, UniProt Q16539); assay: Protein Kinase Assay (33P incorporation from γ-[33P]ATP into GST-ATF-2); format: biochemical; details: 2 nM p38, preincubated 20 min at 30° C.; 10 uM cold ATP, 2 uM GST-ATF2, 70 min; read-out: ACT. (Activity), IC50 category in Protein Kinase Assay
Procedure: Protein Kinase Assay. The protein kinase activity of p38 was determined by measuring the incorporation of ^33P from γ-[^33P]ATP into the GST-ATF-2 substrate, amino acids 19-96 (Upstate, N.Y. USA). The reactions were carried out in a final volume of 50 μL of 24 mM Tris-HCl buffer, pH 7.5, containing 13 mM MgCl2, 12% Glycerol, 2% DMSO, 2 mM DTT, […] of γ-[^33P]ATP (1000 Ci/mmol; 1 Ci=37 GBq) (GE Healthcare, Piscataway, N.J.), 10 uM cold ATP (GE Healthcare, Piscataway, N.J.), and 2 uM GST-ATF2. Compounds were preincubated with 2 nM p38 for 20 min at 30° C.; the reactions were initiated by the addition of GST-ATF2 and ATP and incubated for 70 min at 30° C. before being stopped by the addition of 10 μL of 600 mM phosphoric acid. The phosphorylated substrate was captured on phosphocellulose 96-well plate (Millipore MAPHNOB 10), washed with 100 mM phosphoric acid, and counted in a BeckmenCoulter LS6500 liquid scintillation counter. […] (Activity).

Sequence of p38 (Q16539 whole entry, the tested form may be a part): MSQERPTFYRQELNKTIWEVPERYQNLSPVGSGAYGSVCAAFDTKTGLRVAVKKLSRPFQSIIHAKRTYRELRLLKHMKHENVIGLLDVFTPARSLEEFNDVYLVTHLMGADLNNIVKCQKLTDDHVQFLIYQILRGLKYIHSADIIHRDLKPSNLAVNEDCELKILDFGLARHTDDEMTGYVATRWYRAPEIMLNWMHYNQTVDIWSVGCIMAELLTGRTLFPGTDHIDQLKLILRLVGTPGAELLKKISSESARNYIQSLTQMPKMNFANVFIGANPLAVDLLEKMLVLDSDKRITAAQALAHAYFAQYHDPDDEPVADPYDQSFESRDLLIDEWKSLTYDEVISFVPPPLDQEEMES

Structure (SMILES)	IC50 [nM]
CCNC(=O)c1ccc(-c2cc(NC(=O)Nc3cc(C(C)(C)C)sc3C(=O)N3CCNC(=O)C3(C)C)ccc2C)cn1	< 100
Cc1ccc(NC(=O)Nc2sc(C(C)(C)C)cc2C(=O)N2CCNS(=O)(=O)CC2)cc1-c1ccc(CN2CCOCC2)nc1	< 100
Cc1nnc(-c2ccc(-c3cc(NC(=O)Nc4cc(C(C)(C)C)sc4C(=O)N4CCN(C)C(=O)C4(C)C)ccc3C)cn2)o1	< 100
CCOc1ccc(-c2cc(NC(=O)Nc3cn(C(C)(C)C)nc3C(=O)N3CCN(C)C(=O)C3(C)C)ccc2C)cn1 [1-(1-tert-butyl-3-(2,2,4-trimethyl-3-oxopiperazine-1-carbonyl)-1H-pyrazol-4-yl)-3-(3-(6-ethoxypyridin-3-yl)-4-methylphenyl)urea]	< 100
CCc1ccc(-c2cc(NC(=O)Nc3cn(C(C)(C)C)nc3C(=O)N3CCN(C)C(=O)C3(C)C)ccc2C)cn1 [1-(1-tert-butyl-3-(2,2,4-trimethyl-3-oxopiperazine-1-carbonyl)-1H-pyrazol-4-yl)-3-(3-(6-ethylpyridin-3-yl)-4-methylphenyl)urea]	< 100
CCc1ccc(-c2cc(NC(=O)Nc3cn(C(C)(C)C)nc3C(=O)N3CCN(C)C(=O)C3(C)C)cc(F)c2C)cn1 [1-(1-tert-butyl-3-(2,2,4-trimethyl-3-oxopiperazine-1-carbonyl)-1H-pyrazol-4-yl)-3-(3-(6-ethylpyridin-3-yl)-5-fluoro-4-methylphenyl)urea]	< 100
Cc1ccc(NC(=O)Nc2cn(C(C)(C)C)nc2C(=O)N2CCN(C)C(=O)C2(C)C)cc1-c1ccc(C(C)C)nc1 [1-(1-tert-butyl-3-(2,2,4-trimethyl-3-oxopiperazine-1-carbonyl)-1H-pyrazol-4-yl)-3-(3-(6-isopropylpyridin-3-yl)-4-methylphenyl)urea]	< 100
Cc1ccc(NC(=O)Nc2cn(C(C)(C)C)nc2C(=O)N2CCN(C)C(=O)C2(C)C)cc1-c1ccc(CN2CCOCC2)cn1 [1-(1-tert-butyl-3-(2,2,4-trimethyl-3-oxopiperazine-1-carbonyl)-1H-pyrazol-4-yl)-3-(4-methyl-3-(5-(morpholinomethyl)pyridin-2-yl)phenyl)urea]	< 100
Cc1ccc(NC(=O)Nc2cn(C(C)(C)C)nc2C(=O)N2CCN(C)C(=O)C2(C)C)cc1-c1ccc(N2CCOCC2)cn1 [1-(1-tert-butyl-3-(2,2,4-trimethyl-3-oxopiperazine-1-carbonyl)-1H-pyrazol-4-yl)-3-(4-methyl-3-(5-morpholinopyridin-2-yl)phenyl)urea]	< 100
Cc1ccc(NC(=O)Nc2cn(C(C)(C)C)nc2C(=O)N2CCN(C)C(=O)C2(C)C)cc1-c1ccc(CN2CCOCC2)nc1 [1-(1-tert-butyl-3-(2,2,4-trimethyl-3-oxopiperazine-1-carbonyl)-1H-pyrazol-4-yl)-3-(4-methyl-3-(6-(morpholinomethyl)pyridin-3-yl)phenyl)urea]	< 100
CCc1ccc(-c2cc(NC(=O)Nc3cn(C(C)(C)C)nc3C(=O)N3CCNC(=O)C3(C)C)ccc2C)cn1 [1-(1-tert-butyl-3-(2,2-dimethyl-3-oxopiperazine-1-carbonyl)-1H-pyrazol-4-yl)-3-(3-(6-ethylpyridin-3-yl)-4-methylphenyl)urea]	< 100
Cc1ccc(NC(=O)Nc2cn(C(C)(C)C)nc2C(=O)N2CCNC(=O)C2(C)C)cc1-c1ccc(C(C)C)nc1 [1-(1-tert-butyl-3-(2,2-dimethyl-3-oxopiperazine-1-carbonyl)-1H-pyrazol-4-yl)-3-(3-(6-isopropylpyridin-3-yl)-4-methylphenyl)urea]	< 100
Cc1ccc(NC(=O)Nc2cn(C(C)(C)C)nc2C(=O)N2CCNC(=O)C2(C)C)cc1-c1ccc(CN2CCOCC2)cn1 [1-(1-tert-butyl-3-(2,2-dimethyl-3-oxopiperazine-1-carbonyl)-1H-pyrazol-4-yl)-3-(4-methyl-3-(5-(morpholinomethyl)pyridin-2-yl)phenyl)urea]	< 100
